Experimental data from patent US20230346773A1, “USE OF PCSK9 INHIBITOR IN PREPARATION OF PRODUCT FOR TREATING MULTIPLE DISEASES” (priority 2020, published 2023).

Legend:
Format in all cases: in vivo, Wistar rats
[1] = system: TIMP-1; experiment: Bleomycin pulmonary fibrosis rat model: TIMP-1 expression in lung tissue; conditions: after 14 days of treatment, tail vein 3 mg/kg·d, n = 6, x ± s
Description: (§1) Rats were numbered according to their body weight and divided into groups according to their body weight by random arrangement table method, and divided into small molecule compound treatment group (tail vein injection of PCSK9 small molecule compound inhibitor, 3 mg/kg·d), siPcsk9 treatment group (Tail vein injection of PCSK9 small interfering RNA, 3 mg/kg·d), monoclonal antibody treatment group (tail vein injection of PCSK9 monoclonal antibody, 3 mg/kg·d), peptide treatment group (tail vein injection of PCSK9 polypeptide inhibitor, 3 mg/kg·d), model group (injection of physiological saline into tail vein, 3 mg/kg·d), and blank control group (injection of physiological saline into tail vein, 3 mg/kg·d), 12 animals in each group, half male and half female. Rats in each group were anesthetized by intraperitoneal injection of 2% sodium pentobarbital ([…]), fixed on the operating table, and injected into the neck trachea. The control group was injected with normal saline (1.25 ml/kg), and the model group and each treatment group were injected with 5 U/mL bleomycin solution (5 mg/kg). […]
(§2) Peripheral venous blood was collected from the tail vein of animals in each group after modeling and 14 days after treatment, and the levels of superoxide dismutase (SOD) and catalase (CAT) in peripheral blood were detected. […]

[2] = system: VEGF-mRNA; experiment: Bleomycin pulmonary fibrosis rat model: VEGF-mRNA in lung tissue by reverse transcription PCR; conditions: n = 6, x ± s
Description: as §1, §2

[3] = system: superoxide dismutase (SOD); experiment: Bleomycin pulmonary fibrosis rat model: SOD in peripheral blood; conditions: n = 6, x ± s
Description: as §1, §2

[4] = system: catalase (CAT); experiment: Bleomycin pulmonary fibrosis rat model: CAT in peripheral blood; conditions: n = 6, x ± s
Description: as §1, §2

[5] = system: MMP-2; experiment: Bleomycin pulmonary fibrosis rat model: MMP-2 expression in lung tissue; conditions: after 14 days of treatment, tail vein 3 mg/kg·d, n = 6, x ± s
Description: as §1, §2

[6] = system: VEGF protein; experiment: Bleomycin pulmonary fibrosis rat model: VEGF protein in lung tissue by ELISA; conditions: n = 6, x ± s
Description: as §1, §2

[7] = system: MMP-9; experiment: Bleomycin pulmonary fibrosis rat model: MMP-9 expression in lung tissue; conditions: after 14 days of treatment, tail vein 3 mg/kg·d, n = 6, x ± s
Description: as §1, §2

[8] = after modeling (before the 14 days of treatment)
[9] = tail vein 3 mg/kg·d once a day for 14 days

COc1ccc(CCC(=O)N(c2nccc3ccccc23)[C@@H]2CCCNC2)cc1 [Compound group 1, R-IMPP]
TIMP-1 [1]: 8.56 ± 0.58
VEGF-mRNA, 14 days after modeling [2, 8]: 0.53 ± 0.16
VEGF-mRNA, 14 days after treatment [2, 9]: 0.85 ± 0.16
SOD, 14 days after modeling [3, 8]: 171.45 ± 13.92 U/ml
SOD, 14 days after treatment [3, 9]: 218.56 ± 14.36 U/ml
CAT, 14 days after modeling [4, 8]: 9.43 ± 2.31 kU/g
CAT, 14 days after treatment [4, 9]: 14.45 ± 1.51 kU/g
MMP-2 [5]: 2.67 ± 0.32
VEGF protein, 14 days after modeling [6, 8]: 38.47 ± 3.23 pg/mL
VEGF protein, 14 days after treatment [6, 9]: 57.61 ± 3.86 pg/mL
MMP-9 [7]: 3.43 ± 0.34
